# From article PMC6784148 (Toxins, 2019)
# Read-outs that look alike come from different tables or passages of the source.
# What was measured:
# [1] = test system: intestinal porcine epithelial cell line (IPEC-J2); assay: cells; conditions: Sus scrofa, IPEC-J2, 48 h
# [2] = test system: three different cancer cell lines; set-up: method as in PMID 1172201; conditions: cited from earlier work
# [3] = test system: intestinal porcine epithelial cell line (IPEC-J2)
# [4] = test system: HT29 cells; set-up: method as in PMID 29248571; conditions: after 48 h; cited from earlier work
# [5] = test system: HCEC-1CT cells; set-up: method as in PMID 29248571; conditions: after 48 h; cited from earlier work
# [6] = in vitro; conditions: pig
# [7] = test system: HepG2 cells; conditions: up until a concentration of 100 µM; cited from earlier work
# [8] = set-up: method as in PMID 24239892, PMID 22008903; conditions: cited from earlier work
# [9] = pigs; cited from earlier work
# [10] = test system: rats; set-up: method as in PMID 9872769; conditions: at levels of 0.05 and 0.1%; cited from earlier work
# [11] = test system: THP-1 monocytes; set-up: method as in doi:10.3920/WMJ2014.1861; conditions: cited from earlier work
# [12] = test system: Caco-2 cells; set-up: method as in doi:10.3920/WMJ2014.1861; conditions: 780 µM, 48 h of incubation; cited from earlier work
# [13] = test system: glucuronidation of DON in human liver microsomes; set-up: method as in PMID 31049613, PMID 29465119; conditions: cited from earlier work
Compound,IC50 ([1]; read-out: Relative IC50 value) [µM],Absolute IC50 value [3] [µg/kg],Relative IC50 value [3] [µg/kg],Negative effects on IPEC-J2 in the tested concentration range [3],also measured
COC1=CC(=O)c2c(c(O)c3oc4cc(OC)cc(C)c4c(=O)c3c2O)C1=O [Bikaverin],0.75,711,287,–,IC50 ([1]; read-out: Absolute IC50 value): 1.86 µM; ED50 (cytotoxicity) [2]: 0.5 to 4.2 µg/mL; ED50 (cytotoxicity) ([2]; µg/mL values expressed in µM): 1.31 to 10.99 µM; Viability after applying higher concentrations [3]: did not further decrease below 50%
CN1C(=O)[C@]23CC4=CC=C[C@H](O)[C@H]4N2C(=O)[C@@]1(CO)SS3 [Gliotoxin],0.63,209,206,–,IC50 ([1]; read-out: Absolute IC50 value): 0.64 µM
OCCc1c[nH]c2ccccc12 [tryptophol],–,–,–,None,–
COC1=C(C2=C(OC)C(=O)c3cc4oc(C)cc(=O)c4c(O)c3C2=O)C(=O)c2c(cc3oc(C)cc(=O)c3c2O)C1=O [Aurofusarin],–,6766,5329,–,Concentration at which a significant decrease in viability starts [4]: 5 µM; IC50 ([3]; read-out: Absolute IC50 value): 11.9 µM; IC50 ([3]; read-out: Relative IC50 value): 9.34 µM; Concentration at which a significant decrease in viability starts [5]: 5 µM
Cc1cc(O)cc2oc(=O)c3c(O)cc(O)cc3c12 [Alternariol],20.3,–,5232,–,viability [6]: ~50%; viability at 20 µM [6]: 76.3%; Cell viability of HepG2 cells [7]: did not decrease in a concentration-dependent manner; Cytotoxic effect on IPEC-J2 (in words) [3]: slight decrease in viability
O=c1cc(CO)occ1O [kojic acid],–,–,–,None,–
C/C=C/[C@@H]1C=C[C@@H]2C[C@H](C)CC[C@H]2[C@]1(C)/C(O)=C1/C(=O)[C@H](CO)N(C)C1=O [Equisetin],–,–,4120,–,Cytotoxic effect on IPEC-J2 (in words) [3]: slight decrease in viability; Cell viability ([3]; 20 µM): 64.0% (±7.6%); IC50 ([3]; read-out: Relative IC50 value): 11 µM
O=C1N[C@@H](Cc2ccc(O)cc2)C(=O)N2CCC[C@@H]12 [cyclo-(L-Pro-L-Tyr)],–,–,–,None,Cytotoxic effect on IPEC-J2 (in words) [3]: non-cytotoxic
Beauvericin,–,1905,1756,–,IC50 ([3]; read-out: Absolute IC50 value): 2.43 µM; IC50 ([3]; read-out: Relative IC50 value): 2.24 µM
COc1cc(O)c2c(=O)oc3cc(O)cc(C)c3c2c1 [alternariol monomethyl ether],–,–,–,None,–
Cc1cc(O)c2c(c1)C(=O)c1cc(O)cc(O)c1C2=O [Emodin],13.1,5056,3537,–,IC50 ([1]; read-out: Absolute IC50 value): 18.7 µM; Viability after applying higher concentrations [3]: did not further decrease below 50%; Viability at concentrations >50 µM [3]: did not further decrease
CCCCc1ccc(C(=O)O)nc1 [fusaric acid],–,–,–,None,–
O=C1N[C@@H](Cc2c[nH]c3ccccc23)C(=O)N2CCC[C@@H]12 [brevianamid F],–,–,–,None,–
C=CC(C)(C)[C@@]12C[C@H]3C(=O)N/C(=C/c4c[nH]cn4)C(=O)N3[C@@H]1Nc1ccccc12 [roquefortine C],–,–,–,None,–
CC[C@H](C)[C@H]1C(=O)O[C@H](C(C)C)C(=O)N(C)[C@@H](C(C)C)C(=O)O[C@H](C(C)C)C(=O)N(C)[C@@H](C(C)C)C(=O)O[C@H](C(C)C)C(=O)N1C [Enniatin B1],2.69,2400,1759,–,IC50 ([1]; read-out: Absolute IC50 value): 3.67 µM; Oral bioavailability [8]: high oral bioavailability
"CC1=C[C@H]2O[C@@H]3[C@H](O)C[C@](C)([C@@]2(CO)[C@H](O)C1=O)[C@]31CO1 [Deoxynivalenol, reference compound]",–,756,557,–,Bioavailability after oral administration [9]: 98.6% ± 23.6%; IC50 ([3]; read-out: Absolute IC50 value): 2.55 µM; IC50 ([3]; read-out: Relative IC50 value): 1.88 µM
CC(C)[C@H]1C(=O)O[C@H](C(C)C)C(=O)N(C)[C@@H](C(C)C)C(=O)O[C@H](C(C)C)C(=O)N(C)[C@@H](C(C)C)C(=O)O[C@H](C(C)C)C(=O)N1C [Enniatin B],3.49,2079,2233,–,IC50 ([1]; read-out: Absolute IC50 value): 3.25 µM; Viability after applying higher concentrations [3]: did not further decrease below 50%
O=c1cc(O)c1=O [moniliformin],–,–,–,None,–
Enniatin A1,–,2772,2151,–,IC50 ([3]; read-out: Absolute IC50 value): 4.15 µM; IC50 ([3]; read-out: Relative IC50 value): 3.22 µM
O=C1C=C2C(=CCOC2O)O1 (stereo not shown) [Patulin],3.18,495,490,–,IC50 ([1]; read-out: Absolute IC50 value): 3.21 µM
Enniatin A,–,2319,1964,–,IC50 ([3]; read-out: Absolute IC50 value): 3.4 µM; IC50 ([3]; read-out: Relative IC50 value): 2.88 µM
CC(C)C[C@@H]1NC(=O)[C@H](C)N(C)C(=O)CNC(=O)/C(=C/c2ccccc2)N(C)C1=O [tentoxin],–,–,–,None,–
CC(C)[C@@H]1NC(=O)[C@@H]2CCCN2C1=O [cyclo-(L-Pro-L-Val)],–,–,–,None,–
O=C(O)CC[N+](=O)[O-] [3-nitropropionic acid],–,–,–,None,–
CCC(=O)CCCCC[C@@H]1NC(=O)[C@H]2CCCCN2C(=O)[C@H]([C@@H](C)CC)NC(=O)[C@H](Cc2cn(OC)c3ccccc23)NC1=O [Apicidin],0.49,324,306,–,IC50 ([1]; read-out: Absolute IC50 value): 0.52 µM; Toxic effects in rats [10]: leading to death
"COc1c(C)c2c(c(O)c1C/C=C(\C)CCC(=O)O)C(=O)OC2 [Mycophenolic Acid, Mycophenolic acid]",0.543,–,170,–,Effect in THP-1 monocytes [11]: no effect; viability [6]: ≥ 66%; Decrease of mitochondrial activity [12]: 45%; Abrupt decreased viability [3]: 26.1% ± 12.1%; Cytotoxic effect on IPEC-J2 (in words) [3]: slight decrease in viability; Viability at concentrations from 2.5 to 150 µM [3]: no further loss in viability; IC50 ([3]; read-out: Relative IC50 value): 0.53 µM
COc1cc(O)c2c(O)c3c(=O)cc(C)oc3cc2c1 [Rubrofusarin],21.5,–,5865,–,viability at 50 µM [6]: 64 ± 8.7%; Cytotoxic effect on IPEC-J2 (in words) [3]: slight decrease in viability
CC1(C)CCC[C@]2(C)[C@@H]3[C@H]1[C@@H](O)[C@@]2(C)C[C@H]3O [culmorin],–,–,–,None,Effect on glucuronidation of DON [13]: able to inhibit the glucuronidation of DON; Cytotoxic effect on IPEC-J2 (in words) [3]: no cytotoxic effect
